Data set [1] concerns caterpillars of the diamond-back moth (Plutella maculipennis). The experiment in a line: Plutella test. Type of data set: in vivo. To be noted: after 7 days; active compound concentration 0.1%; dipped cabbage leaves. On the procedure:
(§1) [table] To produce a suitable preparation of active compound, 1 part by weight of active compound is mixed with the stated amount of solvent and the stated amount of emulsifier, and the concentrate is diluted with water to the desired concentration. Cabbage leaves (Brassica oleracea) are treated by being dipped into the preparation of active compound of the desired concentration and are infested with caterpillars of the diamond-back moth (Plutella maculipennis) while the leaves are still moist. After the specified period of time, the destruction in % is determined. 100% means that all the caterpillars have been killed; 0% means that none of the caterpillars have been killed.

Data set [2] has as its system green rice leafhopper (Nephotettix cincticeps). The experiment in a line: Nephotettix test. The data set is classed as in vivo. Conditions: after 6 days; active compound concentration 0.1%; dipped rice seedlings. On the procedure:
as §1, with “Rice seedlings (Oryza sativa)” for “Cabbage leaves (Brassica oleracea)”, “with” for “with caterpillars of”, “green rice leafhopper (Nephotettix cincticeps)” for “diamond-back moth (Plutella maculipennis)”, “seedlings” for “leaves”, “leafhoppers” for “caterpillars”

Data set [3] has as its system greenhouse red spider mite or two-spotted spider-mite (Tetranychus urticae). The experiment in a line: Tetranychus test (OP-resistant/immersion treatment). To be noted: after 13 days; active compound concentration 0.1%; immersion treatment of bean plants. The data set is classed as in vivo. On the procedure:
[table] To produce a suitable preparation of active compound, 1 part by weight of active compound is mixed with the stated amount of solvent and the stated amount of emulsifier, and the concentrate is diluted with water to the desired concentrations. Bean plants (Phaseolus vulgaris) which are severely infested with all development stages of the greenhouse red spider mite or two-spotted spider-mite (Tetranychus urticae) are immersed in a preparation of active compound of the desired concentration. After the specified period of time, the destruction in % is determined. 100% means that all the spider mites have been killed; 0% means that none of the spider mites have been killed.

Data set [4] concerns test plants. The experiment in a line: Pre-emergence test/greenhouse. Type of data set: in vivo. To be noted: greenhouse, 250 g/ha, rated after three weeks vs untreated control, 0%=no action, 100%=total destruction. On the procedure:
[table] To produce a suitable preparation of active compound, 1 part by weight of active compound is mixed with the stated amount of solvent, the stated amount of emulsifier is added and the concentrate is diluted with water to the desired concentration. Seeds of the test plants are sown in normal soil and, after 24 hours, watered with the preparation of the active compound. It is expedient to keep constant the amount of water per unit area The concentration of the active compound in the preparation is of no importance, only the amount of active compound applied per unit area being decisive. After three weeks, the degree of damage to the plants is rated in % damage in comparison to the development of the untreated control. The figures denote: • 0%=no action (like untreated control) 100%=total destruction [table]

The test system of data set [5] is resistant Boophilus microplus, SP resistant Parkhurst strain. Briefly: Test with resistant Boophilus microplus / SP resistant Parkhurst strain. To be noted: active compound concentration 20 μg/animal; injected into the abdomen. The data set is classed as in vivo. On the procedure: [table] 20 mg of active compound are dissolved in 1 ml of dimethyl sulphoxide, and lesser concentrations are prepared by dilution with the same solvent. The test is carried out in 5 applications. 1 μl of the solutions is injected into the abdomen, and the animals are transferred into dishes and kept in a controlled-environment cabinet. The activity is determined via the inhibition of oviposition. 100% means that no tick has produced eggs.

The subject of data set [6] is fly larvae. Briefly: Test with fly larvae/development-inhibitory action. The data set is classed as in vivo. Conditions: active compound concentration 1000 ppm. How it is done:
[table] To produce a suitable formulation, 3 parts by weight of active compound are mixed with 7 parts of the abovementioned solvent/emulsifier mixture, and the resulting emulsion concentrate is diluted with water to the concentration desired in each case. For each concentration, 30 to 50 larvae are transferred to horsemeat (1 cm^3) located in glass tubes and 500 μl of the test dilution are pipetted onto the meat. The glass tubes are placed into plastic beakers whose bottom is covered with sea sand and kept in a control-environment cabinet (26° C.±1.5° C., 70% relative humidity±10%). The activity is checked after 24 hours and 48 hours (larvicidal action). After the larvae have left the glass tubes (approximately 72 hours), the tubes are removed, and perforated plastic lids are placed on the beakers. After 1½ times the development period (hatching of the control flies), the hatched flies and the pupae/puparia are counted. The criterion for the action is death in the treated larvae after 48 hours (larvicidal effect) or inhibition of adults hatching from the pupae or inhibition of pupation. The criterion for the in-vitro action of a substance is the inhibition of fly development or a standstill of development prior to the adult stage. 100% larvicidal activity means that all larvae have died after 48 hours. 100% development-inhibitory activity means that no adult flies have hatched.

Data set [7] concerns green peach aphid (Myzus persicae). Briefly: Myzus test. Conditions: after 6 days; active compound concentration 0.1%; dipped cabbage leaves. The data set is classed as in vivo. On the procedure: as §1, with “oleracea) which are severely infested with the green peach aphid (Myzus persicae)” for “oleracea)”, “concentration.” for “concentration and are infested with caterpillars of the diamond-back moth (Plutella maculipennis) while the leaves are still moist.”, “aphids” for “caterpillars”

Data set [8] has as its system mustard beetle larvae (Phaedon cochleariae). Briefly: Phaedon larvae test. The data set is classed as in vivo. To be noted: after 7 days; active compound concentration 0.1%; dipped cabbage leaves. How it is done:
[table] To produce a suitable preparation of active compound, 1 part by weight of active compound is mixed with the stated amount of solvent and the stated amount of emulsifier, and the concentrate is diluted with water to the desired concentration. Cabbage leaves (Brassica oleracea) are treated by being dipped into the preparation of the active compound of the desired concentration and are infested with mustard beetle larvae (Phaedon cochleariae) while the leaves are still moist. After the specified period of time, the destruction in % is determined. 100% means that all the beetle larvae have been killed; 0% means that none of the beetle larvae have been killed.

Molecules are shown by their SMILES. Where only a bound is given, the exact number is not on record here.

We go through twelve compounds from US6858741B2, “Alkyl-dihalogenated phenyl-substituted ketoenols useful as pesticides and herbicides” (Bayer Aktiengesellschaft, priority 1995, dated 2005).

Regarding `Cc1cc(Cl)c(C2=C(O)C3(CCC(C)CC3)NC2=O)c(Cl)c1` (single isomer, unassigned) [Example I-1-a-7], the destruction in data set [1] came to 100%. This compound displayed a destruction in [2] of 100%. Also, the “activity (destruction)” value in data set [3] amounted to 100%. In data set [4], the “degree of damage, Alopecurus myosuroides” value worked out at 100%; the “degree of damage, Avena fatua” value is 90%; the “degree of damage, Setaria viridis” value was 100%; the “degree of damage, Sinapis arvensis” value amounted to 100%.

In the case of `Cc1cc(Cl)cc(Cl)c1C1=C(OC(=O)C(C)C)C2(CCCC(C)C2)NC1=O` (single isomer, unassigned) [Example I-1-b-3], in data set [5], the “activity (inhibition of oviposition)” value was determined as 100%. In addition, in data set [6], the “activity (larvicidal / development-inhibitory)” value came out at 100%.

In data set [2], `CCOC(=O)OC1=C(c2c(C)cc(Cl)cc2Cl)C(=O)NC12CCC(C)CC2` (single isomer, unassigned) [Example I-1-c-4] registered a destruction of 100%. Moreover, the “activity (destruction)” value in data set [3] stood at 100%. Moreover, in [4], the “degree of damage, Alopecurus myosuroides” value is 100%; the “degree of damage, Avena fatua” value was determined as 100%; the “degree of damage, Beta vulgaris” value was found to be 50%; the “degree of damage, Setaria viridis” value came to 100%. Also, the “degree of damage, Sinapis arvensis” value in [4] stood at 100%.

As for `Cc1cc(Cl)cc(Cl)c1C1=C(O)C(C)(C(C)C)NC1=O` (stereo not drawn) [Example I-1-a-1], the destruction in data set [1], in data set [2] and in [7] was 100% throughout.

In the case of `Cc1cc(Cl)cc(Cl)c1C1=C(O)C2(CCOCC2)NC1=O` [Example I-1-a-5], in [5], the “activity (inhibition of oviposition)” value is on record as 100%. Besides, the “activity (larvicidal / development-inhibitory)” value in [6] was found to be 100%.

Regarding `Cc1cc(Cl)c(C2=C(O)C3(CCOCC3)NC2=O)c(Cl)c1` [Example I-1-a-10], the destruction in data set [8] is 100%. Moreover, in data set [3], the “activity (destruction)” value came to 100%.

In data set [8], `CC(=O)OC1=C(c2c(C)cc(Cl)cc2Cl)C(=O)NC12CCCCC2` [Example I-1-b-7] showed a destruction of 100%. Moreover, the destruction in data set [7] is on record as 100%. Further, the “activity (destruction)” value in [3] was 100%. In [4], the “degree of damage, Alopecurus myosuroides” value is recorded as 95%; the “degree of damage, Avena fatua” value is listed as 80%; the “degree of damage, Beta vulgaris” value amounted to 30%; the “degree of damage, Setaria viridis” value turned out to be 100%. In [4], the “degree of damage, Sinapis arvensis” value is 100%.

For orientation: melting point means the temperature, or range, at which the solid turns liquid. `Cc1cc(Cl)cc(Cl)c1C1=C(O)C2(CCCCC2)OC1=O` [Example I-2-a-1, 3-(2,4-dichloro-6-methyl-phenyl)-5-spirocyclohexyltetronic acid] yielded a melting point above 240 °C.

The compound `Cc1cc(Cl)c(C2=C(O)C3(CCCCC3)OC2=O)c(Cl)c1` [Example I-2-a-5] showed a destruction in [7] of 100%.

Consider `Cc1cc(Cl)c(C2=C(O)C3(CCC(C)CC3)OC2=O)c(Cl)c1` (stereo not drawn) [Example I-2-a-6], for which the destruction in [8] and in data set [7] was 100% in each case. Further, the “activity (inhibition of oviposition)” value in data set [5] was determined as 100%. In data set [6], the “activity (larvicidal / development-inhibitory)” value worked out at 100%.

`Cc1cc(Cl)c(C2=C(O)C3(CCCCC3)SC2=O)c(Cl)c1` [Example I-3-a-2]: the destruction in data set [8] worked out at 100%. The same compound came in with a destruction in data set [2] of 100%. Besides, the “activity (destruction)” value in data set [3] was 100%. Further, in [4], the “degree of damage, Amaranthus” value amounted to 60% and the “degree of damage, Beta vulgaris” value is 0%.

For `Cc1cc(Cl)c(C2=C(OC(=O)C(C)(C)C)C3(CCCCC3)SC2=O)c(Cl)c1` [Example I-3-b-1], the destruction in data set [1] and in [2] was 100% in each case. Moreover, the “activity (destruction)” value in data set [3] is recorded as 100%.
